# From PMC6987146, “Potent inhibition of HIV replication in primary human cells by novel synthetic polyketides inspired by Aureothin” (Scientific Reports, 2020)
# Where two headings read alike, the source gives them in different places.
# Key:
# [1] = system: DsRed1 reporter gene activated by early viral gene expression; test: DsRed1 reporter gene expression in HIV-exposed LC5-RIC cultures (first step of two-step assay); type: cell-based, HIV-1; design: unit not given here; conditions: 50 nM, 48 h
# Description: The reporter gene in LC5-RIC cells contains the HIV promoter and other regulatory elements of HIV expression and is activated by early viral gene expression during HIV infection. Use of LC5-RIC cells in a previously described two-step assay format allows comparison of the effect of compound treatment on expression of the DsRed1 reporter gene and infectious virus production in the same cultures. As reference compound, we used an experimental inhibitor of HIV transcription called Flavopiridol. Flavopiridol blocks pTEFb, an essential co-factor for Tat-dependent activation[18],[19]. […]
# Figure 2 Comparison of effects of compound #7 treatment on reporter gene expression and production of infectious virus in LC5-RIC cultures. […] Effects of compound treatment on reporter gene expression and production of infectious virus were determined in LC5-RIC cultures exposed to virus inoculum in the presence or absence of compounds for 48 h. Fluorescent signals of these primary cultures were measured to determine effects on reporter gene expression. Effects on infectious virus production were determined by transferring aliquots of the supernatants of primary cultures to uninfected LC5-RIC cells, and fluorescent signals determined in secondary plates 72 h after transfer. […]
# [2] = system: integrated proviral HIV-1 DNA; test: Integrated proviral HIV-1 DNA by Alu-PCR in LC5-RIC cells; type: cell-based; conditions: HIV-1LAI, 48 h, concentrations >2x IC90, normalized to DMSO
# Procedure: Quantitative analysis of integrated copies of HIV proviral DNA by Alu-PCR was performed essentially as described in[46]. Briefly, LC5-RIC cells seeded at a density of 100,000 cells per well in 12-well plates and incubated for 24 h were exposed to test compounds and HIV-1LAI virus inoculum at an MOI of 0.5 and incubated for further 48 h at 37 °C, 5% CO2. Subsequently, cells were harvested and genomic DNA (gDNA) was extracted using the QIAamp DNA Mini Kit (QIAGEN) according to the manufacturer’s protocol. The relative amount of integrated proviral HIV-1 DNA was determined by two-step Alu-PCR[46]. The relative amounts of integrated proviral HIV-1 DNA in treated versus untreated samples were calculated by the 2^(−ΔΔCt) method, with ΔCT values representing CT (HIV) - CT (β-globin) for each sample and ΔΔCT values representing values of treated samples normalized to untreated samples.
# [3] = CellTiter-Glo 2.0 cell viability assay in LC5-RIC cells; type: cell-based; conditions: human; Table S2; CellTiter-Glo 2.0; mean ± SD
# Procedure: (§1) The following assays were used to profile cell safety of compound treatment in HIV-exposed cultures (LC5-RIC or PBMC): (1) CellTox^TM Green Cytotoxicity Assay, Promega, measures binding of a fluorescent dye to DNA of cells with impaired membrane integrity; (2) CellTiter-Glo® 2.0 Assay, Promega, which measures the amount of ATP in viable cells after lysis using an assay with luminescence read-out. Cells were plated into black 96-well plates followed by overnight incubation at 37 °C, 5% CO2. Compounds dissolved in DMSO were screened at multiple concentrations from 0.6 to 10,000 nM at a final DMSO concentration of 0.04% followed by additional 48 h incubation. Both assays were performed according to manufacturer’s recommendations and consecutively in the above mentioned order. Cells were washed once with PBS between the assays.
# [4] = CellTiter-Glo 2.0 cell viability assay in PBMC; type: cell-based, human; conditions: human
# Procedure: as §1
# HIV-1LAI = test: Inhibition of HIV infection of human PBMCs (infectious virus production, read out on LC5-RIC cells); type: cell-based; conditions: mean ± SD
# Procedure: To evaluate anti-HIV efficacies of test compounds in primary human target cells, stimulated PBMCs were seeded in 96-well plates at a density of 500,000 cells per well, different #7concentrations of the compound (serial dilutions) and virus inoculum (MOI of 0.5) added to the PBMCs and cultures incubated for 48 h. Infectious virus production was quantified by transferring 35 µl of supernatant from the PBMC cultures to LC5-RIC cells, seeded in black 96-well plates one day earlier. LC5-RIC cultures were then incubated for 72 h and analysed for DsRed1 reporter expression and anti-HIV activity calculated as described for the EASY-HIT assay.
SMILES,"Reporter gene expression, median (fluorescent signal normalized to untreated virus-exposed cultures) [1]",reduction of levels of integrated proviral DNA [2],CC50 at 48 h [3],"CC50 at 48 h ([4]; CellTiter-Glo 2.0, PBMC, read-out: Cell viability in PBMC, CC50)","IC90 (HIV-1LAI; Human immunodeficiency virus 1, PBMC, read-out: IC90, 90% HIV-inhibitory concentration, human PBMCs exposed to HIV-1LAI)","IC50 (HIV-1LAI; Human immunodeficiency virus 1, PBMC, human PBMCs exposed to HIV-1LAI, read-out: IC50, half maximal HIV-inhibitory concentration)","IC90 (HIV-1LAI; read-out: IC90, 90% HIV-inhibitory concentration, human PBMCs exposed to HIV-1LAI)",CC50 at 48 h [4],"IC50 (HIV-1LAI; Human immunodeficiency virus 1, Table S2, PBMC, read-out: Anti-HIV in PBMC, IC50)"
COc1oc(C2C/C(=C/C(C)=C/c3ccc(C(F)(F)F)cc3)CO2)c(C)c(=O)c1C (stereo not drawn) [compound #7],55.3,< 20%,> 10000 nM,> 10000 nM,< 45 nM,10.3 ± 0.65 nM,41 ± 1.23 nM,,
CN1CC[C@H](c2c(O)cc(O)c3c(=O)cc(-c4ccccc4Cl)oc23)[C@H](O)C1 [Flavopiridol],9.33,did not reveal reduction of proviral DNA levels,127.4 ± 0.94 nM,,,,,120 ± 13.5 nM,35.6 ± 3.46 nM
